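These data come from cells grown in 96-well plates and exposed to compound for 48 hours at five concentrations. TGI is the concentration that stops growth completely.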
Tests used:
Test in all cases: NCI-60 cell line screen, 48 h
786-0 renal = tested on: 786-0 renal
A498 renal = tested on: A498 renal
A549 NSCLC = tested on: A549 NSCLC
ACHN renal = tested on: ACHN renal
CAKI-1 renal = tested on: CAKI-1 renal
CCRF-CEM leukemia = tested on: CCRF-CEM leukemia
COLO 205 colon = tested on: COLO 205 colon
DLD-1 colon = tested on: DLD-1 colon
DMS 114 small cell lung = tested on: DMS 114 small cell lung
DMS 273 small cell lung = tested on: DMS 273 small cell lung
EKVX NSCLC = tested on: EKVX NSCLC
HCC-2998 colon = tested on: HCC-2998 colon
HCT-116 colon = tested on: HCT-116 colon
HCT-15 colon = tested on: HCT-15 colon
HL-60(TB) leukemia = tested on: HL-60(TB) leukemia
HOP-62 NSCLC = tested on: HOP-62 NSCLC
HT29 colon = tested on: HT29 colon
IGROV1 ovarian = tested on: IGROV1 ovarian
K-562 leukemia = tested on: K-562 leukemia
KM12 colon = tested on: KM12 colon
KM20L2 colon = tested on: KM20L2 colon
LOX IMVI melanoma = tested on: LOX IMVI melanoma
LXFL 529 NSCLC = tested on: LXFL 529 NSCLC
M14 melanoma = tested on: M14 melanoma
MOLT-4 leukemia = tested on: MOLT-4 leukemia
NCI-H226 lung = tested on: NCI-H226 lung
NCI-H23 lung = tested on: NCI-H23 lung
NCI-H460 lung = tested on: NCI-H460 lung
NCI-H522 lung = tested on: NCI-H522 lung
OVCAR-3 ovarian = tested on: OVCAR-3 ovarian
OVCAR-4 ovarian = tested on: OVCAR-4 ovarian
OVCAR-5 ovarian = tested on: OVCAR-5 ovarian
OVCAR-8 ovarian = tested on: OVCAR-8 ovarian
RPMI-8226 leukemia = tested on: RPMI-8226 leukemia
RXF 393 renal = tested on: RXF 393 renal
RXF-631 renal = tested on: RXF-631 renal
SF-268 CNS = tested on: SF-268 CNS
SF-295 CNS = tested on: SF-295 CNS
SF-539 CNS = tested on: SF-539 CNS
SK-MEL-2 melanoma = tested on: SK-MEL-2 melanoma
SK-MEL-28 melanoma = tested on: SK-MEL-28 melanoma
SN12C renal = tested on: SN12C renal
SNB-19 CNS = tested on: SNB-19 CNS
SNB-75 CNS = tested on: SNB-75 CNS
SNB-78 CNS = tested on: SNB-78 CNS
SR leukemia = tested on: SR leukemia
SW-620 colon = tested on: SW-620 colon
TK-10 renal = tested on: TK-10 renal
U251 CNS = tested on: U251 CNS
UACC-257 melanoma = tested on: UACC-257 melanoma
UACC-62 melanoma = tested on: UACC-62 melanoma
UO-31 renal = tested on: UO-31 renal

Compound: Cc1ccc(NC(=O)SCCC(=O)O)cc1
- TGI (786-0 renal): > 100 µM
- TGI (A498 renal): > 100 µM
- TGI (A549 NSCLC): > 100 µM
- TGI (ACHN renal): > 100 µM
- TGI (CAKI-1 renal): > 100 µM
- TGI (CCRF-CEM leukemia): > 100 µM
- TGI (COLO 205 colon): > 100 µM
- TGI (DLD-1 colon): > 100 µM
- TGI (DMS 114 small cell lung): > 100 µM
- TGI (DMS 273 small cell lung): > 100 µM
- TGI (EKVX NSCLC): > 100 µM
- TGI (HCC-2998 colon): > 100 µM
- TGI (HCT-116 colon): > 100 µM
- TGI (HCT-15 colon): > 100 µM
- TGI (HL-60(TB) leukemia): > 100 µM
- TGI (HOP-62 NSCLC): > 100 µM
- TGI (HT29 colon): > 100 µM
- TGI (IGROV1 ovarian): > 100 µM
- TGI (K-562 leukemia): > 100 µM
- TGI (KM12 colon): > 100 µM
- TGI (KM20L2 colon): > 100 µM
- TGI (LOX IMVI melanoma): > 100 µM
- TGI (LXFL 529 NSCLC): > 100 µM
- TGI (M14 melanoma): > 100 µM
- TGI (MOLT-4 leukemia): > 100 µM
- TGI (NCI-H226 lung): > 100 µM
- TGI (NCI-H23 lung): > 100 µM
- TGI (NCI-H460 lung): > 100 µM
- TGI (NCI-H522 lung): > 100 µM
- TGI (OVCAR-3 ovarian): > 100 µM
- TGI (OVCAR-4 ovarian): > 100 µM
- TGI (OVCAR-5 ovarian): > 100 µM
- TGI (OVCAR-8 ovarian): > 100 µM
- TGI (RPMI-8226 leukemia): > 100 µM
- TGI (RXF 393 renal): > 100 µM
- TGI (RXF-631 renal): > 100 µM
- TGI (SF-268 CNS): 94.9 µM
- TGI (SF-295 CNS): > 100 µM
- TGI (SF-539 CNS): > 100 µM
- TGI (SK-MEL-2 melanoma): > 100 µM
- TGI (SK-MEL-28 melanoma): > 100 µM
- TGI (SN12C renal): > 100 µM
- TGI (SNB-19 CNS): > 100 µM
- TGI (SNB-75 CNS): 66.7 µM
- TGI (SNB-78 CNS): > 100 µM
- TGI (SR leukemia): > 100 µM
- TGI (SW-620 colon): > 100 µM
- TGI (TK-10 renal): > 100 µM
- TGI (U251 CNS): > 100 µM
- TGI (UACC-257 melanoma): > 100 µM
- TGI (UACC-62 melanoma): > 100 µM
- TGI (UO-31 renal): > 100 µM

Source: PubChem BioAssay (NCI)
